target: recombinant B-RAF enzyme (Homo sapiens (Human), UniProt P15056); assay: In vitro B-RAF Kinase Assay (HTRF), IC50 determination; format: biochemical; details: 6HIS-Mek1 substrate, 60 min at 23° C.
Method: In vitro B-RAF Kinase Assay. To determine in vitro activities of recombinant B-RAF enzyme, a Homogeneous Time-Resolved Fluorescence (HTRF) assay was performed. […] Meanwhile, an Anti-6HIS-d2 antibody (Anti-6HIS-d2, Cisbio international) was added to detection system. When the two antibodies were close enough, energy, transfer was happened between Eu and d2, then activities of enzyme was determine by measuring fluorescence intensity (320 nm excitation, 665 nm emission).
IC50 determination. To evaluate in vitro potency of compounds against B-RAF enzyme, the IC50 values of compounds of this invention were determined. Compounds were 3-fold serially diluted with 100% DMSO from 1 mM, then 4 ml of compounds were transferred to 96 ml of reaction buffer (50 mM HEPES pH7.4, 10 mM MgCl2, 1 mM EGTA, 0.01% Tween-20, 0.005% BAS, 2 mM DTT). […] Then 2.5 ml of 4×ATP (2 mM) was added to the reaction system and initiated the reaction. The assay plate was incubated in an incubator for 60 min at 23° C., then the reaction was terminated by adding 5 ml of detection solution containing Eu3+ cryptate-labeled anti-phosphotyrosine PT66 antibody, and 5 ml of Anti-6HIS-d2 antibody. The plate was incubated for 1 h at 23° C. and the fluorescent signal was read with an EnVision multilable plate reader (PerkinElmer). IC50 values of compounds were generated using GraFit software (Version 6.0).

recombinant B-RAF enzyme, sequence (P15056 whole entry, species assumed): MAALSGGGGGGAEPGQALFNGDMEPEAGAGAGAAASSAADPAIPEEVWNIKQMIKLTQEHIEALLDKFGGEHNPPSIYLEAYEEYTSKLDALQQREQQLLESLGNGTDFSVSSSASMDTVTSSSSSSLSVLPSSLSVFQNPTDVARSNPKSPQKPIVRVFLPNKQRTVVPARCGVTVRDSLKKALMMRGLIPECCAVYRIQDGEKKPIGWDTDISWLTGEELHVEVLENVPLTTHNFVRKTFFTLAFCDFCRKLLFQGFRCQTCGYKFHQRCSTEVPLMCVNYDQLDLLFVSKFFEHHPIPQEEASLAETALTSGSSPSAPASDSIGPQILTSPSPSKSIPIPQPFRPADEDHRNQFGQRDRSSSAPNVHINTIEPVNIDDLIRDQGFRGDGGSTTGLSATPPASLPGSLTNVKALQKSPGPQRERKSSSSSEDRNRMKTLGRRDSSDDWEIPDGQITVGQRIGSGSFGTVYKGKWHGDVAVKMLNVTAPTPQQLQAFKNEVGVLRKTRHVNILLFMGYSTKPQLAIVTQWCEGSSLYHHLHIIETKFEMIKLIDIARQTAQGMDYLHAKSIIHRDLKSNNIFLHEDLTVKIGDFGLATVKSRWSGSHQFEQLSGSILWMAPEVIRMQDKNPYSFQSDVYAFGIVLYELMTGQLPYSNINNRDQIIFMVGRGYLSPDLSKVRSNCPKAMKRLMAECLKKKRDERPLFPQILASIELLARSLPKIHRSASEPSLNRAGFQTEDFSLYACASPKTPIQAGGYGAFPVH

CCS(=O)(=O)Nc1ccc(F)c(Nc2ncccc2-c2ncnc3[nH]cnc23)c1F [Example 12, N-(3-(3-(9H-purin-6-yl)pyridin-2-ylamino)-2,4-difluorophenyl)ethanesulfonamide] and CCCS(=O)(=O)Nc1ccc(F)c(Nc2ncccc2-c2ncnc3[nH]cnc23)c1F [Example 1, N-(3-(3-(9H-purin-6-yl)pyridin-2-ylamino)-2,4-difluorophenyl)propane-1-sulfonamide] cannot be ordered by IC50: under 1000 nM for the first, under 100 nM for the second.

O=S(=O)(CCl)Nc1ccc(F)c(Nc2ncccc2-c2ncnc3[nH]cnc23)c1F [Example 11, N-(3-(3-(9H-purin-6-yl)pyridin-2-ylamino)-2,4-difluorophenyl)-1-chloromethanesulfonamide] and CS(=O)(=O)Nc1ccc(F)c(Nc2ncccc2-c2ncnc3[nH]cnc23)c1F [Example 13, N-(3-(3-(9H-purin-6-yl)pyridin-2-ylamino)-2,4-difluorophenyl)methanesulfonamide] cannot be ordered by IC50: under 500 nM for the first, under 500 nM for the second.

O=S(=O)(Nc1ccc(F)c(Nc2ncccc2-c2ncnc3[nH]cnc23)c1F)c1ccc(Cl)cc1 [Example 17, N-(3-(3-(9H-purin-6-yl)pyridin-2-ylamino)-2,4-difluorophenyl)-4-chlorobenzenesulfonamide] and O=S(=O)(Nc1ccc(F)c(Nc2ncccc2-c2ncnc3[nH]cnc23)c1F)c1ccc(F)cc1 [Example 23, N-(3-(3-(9H-purin-6-yl)pyridin-2-ylamino)-2,4-difluorophenyl)-4-fluorobenzenesulfonamide] cannot be ordered by IC50: under 500 nM for the first, under 1000 nM for the second.

O=S(=O)(CCC(F)(F)F)Nc1ccc(F)c(Nc2ncccc2-c2ncnc3[nH]cnc23)c1F [Example 18, N-(3-(3-(9H-purin-6-yl)pyridin-2-ylamino)-2,4-difluorophenyl)-3,3,3-trifluoropropane-1-sulfon amide] and O=S(=O)(CC(F)(F)F)Nc1ccc(F)c(Nc2ncccc2-c2ncnc3[nH]cnc23)c1F [Example 19, N-(3-(3-(9H-purin-6-yl)pyridin-2-ylamino)-2,4-difluorophenyl)-2,2,2-trifluoromethanesulfonamide] cannot be ordered by IC50: under 100 nM for the first, under 100 nM for the second.

CCCS(=O)(=O)Nc1ccc(C)c(Nc2ncccc2-c2ncnc3[nH]cnc23)c1 [Example 6, N-(3-(3-(9H-purin-6-yl)pyridin-2-ylamino)-4-methylphenyl)propane-1-sulfonamide] and CCCS(=O)(=O)Nc1ccc(F)c(Nc2ncccc2-c2ncnc3[nH]cnc23)c1 [Example 4, N-(3-(3-(9H-purin-6-yl)pyridin-2-ylamino)-4-fluorophenyl)propane-1-sulfonamide] cannot be ordered by IC50: under 100 nM for the first, under 100 nM for the second.

C=CS(=O)(=O)Nc1ccc(F)c(Nc2ncccc2-c2ncnc3[nH]cnc23)c1F [Example 20, N-(3-(3-(9H-purin-6-yl)pyridin-2-ylamino)-2,4-difluorophenyl)ethenesulfonamide] and O=S(=O)(CCCF)Nc1ccc(F)c(Nc2ncccc2-c2ncnc3[nH]cnc23)c1F [Example 10, N-(3-(3-(9H-purin-6-yl)pyridin-2-ylamino)-2,4-difluorophenyl)-3-fluoropropane-1-sulfonamide] cannot be ordered by IC50: under 500 nM for the first, under 100 nM for the second.

O=S(=O)(Nc1ccc(F)c(Nc2ncccc2-c2ncnc3[nH]cnc23)c1F)c1ccc(F)c(F)c1 [Example 14, N-(3-(3-(9H-purin-6-yl)pyridin-2-ylamino)-2,4-difluorophenyl)-3,4-difluorobenzenesulfonamide] and O=S(=O)(Nc1ccc(F)c(Nc2ncccc2-c2ncnc3[nH]cnc23)c1F)c1ccsc1 [Example 24, N-(3-(3-(9H-purin-6-yl)pyridin-2-ylamino)-2,4-difluorophenyl)thiophene-3-sulfonamide] cannot be ordered by IC50: under 500 nM for the first, under 100 nM for the second.

CCCS(=O)(=O)Nc1ccc(F)c(Nc2ncccc2-c2ncnc3[nH]c(C)nc23)c1F [Example 3, N-(2,4-difluoro-3-(3-(8-methyl-9H-purin-6-yl)pyridin-2-ylamino)phenyl)propane-1-sulfonamide] and CCCS(=O)(=O)Nc1ccc(F)c(Nc2ncccc2-c2ncnc3[nH]ncc23)c1F [Example 25, N-(3-(3-(1H-pyrazolo[3,4-d]pyrimidin-4-yl)pyridin-2-ylamino)-2,4-difluorophenyl)propane-1-sulfonamide] cannot be ordered by IC50: under 500 nM for the first, under 500 nM for the second.

CCCS(=O)(=O)Nc1ccc(Cl)c(Nc2ncccc2-c2ncnc3[nH]cnc23)c1F [Example 7, N-(3-(3-(9H-purin-6-yl)pyridin-2-ylamino)-4-chloro-2-fluorophenyl)propane-1-sulfonamide] and O=S(=O)(CCCF)Nc1ccc(Cl)c(Nc2ncccc2-c2ncnc3[nH]cnc23)c1F [Example 9, N-(3-(3-(9H-purin-6-yl)pyridin-2-ylamino)-4-chloro-2-fluorophenyl)-3-fluoropropane-1-sulfonamide] cannot be ordered by IC50: under 100 nM for the first, under 100 nM for the second.

CCCS(=O)(=O)Nc1ccc(F)c(Nc2ncccc2-c2ncnc3[nH]cnc23)c1Cl [Example 8, N-(3-(3-(9H-purin-6-yl)pyridin-2-ylamino)-2-chloro-4-fluorophenyl)propane-1-sulfonamide] and CCCS(=O)(=O)Nc1ccc(Cl)c(Nc2ncccc2-c2ncnc3[nH]cnc23)c1 [Example 5, N-(3-(3-(9H-purin-6-yl)pyridin-2-ylamino)-4-chlorophenyl)propane-1-sulfonamide] cannot be ordered by IC50: under 100 nM for the first, under 100 nM for the second.

CCCS(=O)(=O)Nc1ccc(C)c(Nc2ccccc2-c2ncnc3[nH]cnc23)c1 [Example 27, N-(3-(2-(9H-purin-6-yl)phenylamino)-4-methylphenyl)propane-1-sulfonamide] and CCCS(=O)(=O)Nc1ccc(F)c(Nc2ccccc2-c2ncnc3[nH]cnc23)c1F [Example 28, N-(3-(2-(9H-purin-6-yl)phenylamino)-2,4-difluorophenyl)propane-1-sulfonamide] cannot be ordered by IC50: under 100 nM for the first, under 1000 nM for the second.

O=S(=O)(Nc1ccc(F)c(Nc2ncccc2-c2ncnc3[nH]cnc23)c1F)c1ccccc1 [Example 15, N-(3-(3-(9H-purin-6-yl)pyridin-2-ylamino)-2,4-difluorophenyl)benzenesulfonamide] and O=S(=O)(Nc1ccc(F)c(Nc2ncccc2-c2ncnc3[nH]cnc23)c1F)C1CC1c1ccccc1 (centres unmarked) [Example 21, N-(3-(3-(9H-purin-6-yl)pyridin-2-ylamino)-2,4-difluorophenyl)-2-phenylcyclopropane-1-sulfonamide] cannot be ordered by IC50: under 100 nM for the first, under 500 nM for the second.

CCCS(=O)(=O)Nc1ccc(F)c(Nc2ncccc2-c2ncnc3[nH]ccc23)c1F [Example 26, N-(3-(3-(7H-pyrrolo[2,3-d]pyrimidin-4-yl)pyridin-2-ylamino)-2,4-difluorophenyl)propane-1-sulfonamide] and COc1ccc(C2CC2S(=O)(=O)Nc2ccc(F)c(Nc3ncccc3-c3ncnc4[nH]cnc34)c2F)cc1 (centres unmarked) [Example 22, N-(3-(3-(9H-purin-6-yl)pyridin-2-ylamino)-2,4-difluorophenyl)-2-(4-methoxyphenyl)cyclopropane-1-sulfonamide] cannot be ordered by IC50: under 500 nM for the first, under 1000 nM for the second.
